# According to ChEMBL document CHEMBL1909046, “DrugMatrix in vitro pharmacology data”:
# Legend:
# [1] = DRUGMATRIX: Glutamate, Kainate radioligand binding (ligand: [3H] Kainic acid); format: cell membranes, Rattus norvegicus, Wistar, Brain, Membrane; conditions: Not Active = under 50% inhibition at 10 µM
# Glycine receptor = Glycine receptor (Rattus norvegicus, UniProt P22771+P24524+P07727+P20781); format: cell membranes, Wistar, Spinal cord, Membrane; also: in other assays of this panel Not Active means under 50% inhibition at 10 µM
# [2] = target: Beta-3 adrenergic receptor (Homo sapiens, UniProt P13945); assay: DRUGMATRIX: Adrenergic beta3 radioligand binding (ligand: [125I] Cyanopindolol); format: cell membranes, HEK293, Membrane; conditions: Not Active = under 50% inhibition at 10 µM; for Ki: read-out: Ki
# [3] = target: C-C chemokine receptor type 2 (Homo sapiens, UniProt P41597); format: cell membranes, CHO-K1, Membrane; conditions: cho-k1; also: in other assays of this panel Not Active means under 50% inhibition at 10 µM
# Thromboxane-A synthase = target: T1, Thromboxane-A synthase (Homo sapiens, UniProt P24557); assay: biochemical; format: tissue-based, Platelet;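 also: enzyme inhibition assay with PGH2 supplied as substrate; in other assays of this panel Not Active means under 50% inhibition at 10 µM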
# T1 sequence (P24557 whole entry): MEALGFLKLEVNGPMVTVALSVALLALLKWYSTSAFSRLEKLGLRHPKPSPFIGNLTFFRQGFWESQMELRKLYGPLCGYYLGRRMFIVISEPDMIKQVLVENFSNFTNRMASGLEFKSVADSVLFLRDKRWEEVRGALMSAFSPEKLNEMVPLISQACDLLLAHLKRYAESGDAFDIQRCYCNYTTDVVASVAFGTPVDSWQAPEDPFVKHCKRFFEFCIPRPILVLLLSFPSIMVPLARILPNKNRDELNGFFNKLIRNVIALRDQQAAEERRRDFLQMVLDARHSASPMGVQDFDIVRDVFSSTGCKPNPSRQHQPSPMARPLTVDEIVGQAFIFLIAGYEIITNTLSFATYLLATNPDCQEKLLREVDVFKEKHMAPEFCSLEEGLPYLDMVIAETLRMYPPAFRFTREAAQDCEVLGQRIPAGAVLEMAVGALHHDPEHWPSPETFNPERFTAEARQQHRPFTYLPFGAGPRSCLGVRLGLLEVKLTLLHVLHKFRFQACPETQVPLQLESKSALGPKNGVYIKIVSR
# [4] = target: Tyrosine-protein kinase Lck (Homo sapiens, UniProt P06239); assay: DRUGMATRIX: Protein Tyrosine Kinase, LCK enzyme inhibition (substrate: Poly(Glu:Tyr)); format: cell-based, Insect cells; conditions: insect cells; Not Active = under 50% inhibition at 10 µM
# [5] = target: Platelet-activating factor receptor (Homo sapiens, UniProt P25105); assay: biochemical; format: tissue-based; also: in other assays of this panel Not Active means under 50% inhibition at 10 µM
# [6] = target: Beta-2 adrenergic receptor (Homo sapiens, UniProt P07550); assay: DRUGMATRIX: Adrenergic beta2 radioligand binding (ligand: [3H] CGP-12177); format: cell membranes, Membrane; conditions: cho; Not Active = under 50% inhibition at 10 µM
# [7] = target: T2, C-X-C chemokine receptor type 2 (Homo sapiens, UniProt P25025); format: cell membranes, Membrane; conditions: cho-k1; also: in other assays of this panel Not Active means under 50% inhibition at 10 µM
# T2 sequence (P25025 whole entry): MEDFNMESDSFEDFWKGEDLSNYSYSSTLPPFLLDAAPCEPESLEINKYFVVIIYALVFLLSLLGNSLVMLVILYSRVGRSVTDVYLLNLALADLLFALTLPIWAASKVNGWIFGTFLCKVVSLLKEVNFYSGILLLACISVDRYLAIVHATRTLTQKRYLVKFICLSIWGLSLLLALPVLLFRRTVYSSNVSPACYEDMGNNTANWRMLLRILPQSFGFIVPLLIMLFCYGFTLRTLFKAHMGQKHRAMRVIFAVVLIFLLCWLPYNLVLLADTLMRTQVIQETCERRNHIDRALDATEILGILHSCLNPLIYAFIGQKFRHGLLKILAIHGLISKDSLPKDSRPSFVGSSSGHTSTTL
# Carbonic anhydrase 2 = Carbonic anhydrase 2 (Homo sapiens, UniProt P00918); assay: DRUGMATRIX: Carbonic Anhydrase II enzyme inhibition (substrate: 4-Nitrophenyl acetate (4-NPA)); format: tissue-based, Erythrocyte; conditions: Not Active = under 50% inhibition at 10 µM
# [8] = target: Kappa-type opioid receptor (Homo sapiens, UniProt P41145); assay: DRUGMATRIX: Opiate kappa (OP2, KOP) radioligand binding (ligand: [3H] Diprenorphine); format: cell membranes, HEK293, Membrane; conditions: Not Active = under 50% inhibition at 10 µM
# [9] = target: T3, Cysteinyl leukotriene receptor 1 (Homo sapiens, UniProt Q9Y271); format: cell membranes, CHO-K1, Membrane; also: in other assays of this panel Not Active means under 50% inhibition at 10 µM
# T3 sequence (Q9Y271 whole entry): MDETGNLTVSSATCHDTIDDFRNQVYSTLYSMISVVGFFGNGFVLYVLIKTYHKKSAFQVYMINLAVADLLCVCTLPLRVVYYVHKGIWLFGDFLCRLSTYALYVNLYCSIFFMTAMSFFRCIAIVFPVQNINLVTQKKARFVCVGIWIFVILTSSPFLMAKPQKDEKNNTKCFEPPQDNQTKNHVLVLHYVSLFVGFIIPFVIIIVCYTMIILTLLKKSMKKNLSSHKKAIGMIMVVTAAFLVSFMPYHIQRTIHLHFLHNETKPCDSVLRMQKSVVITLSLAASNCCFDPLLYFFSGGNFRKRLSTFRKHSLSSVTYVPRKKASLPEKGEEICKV
# Sequence of Beta-3 adrenergic receptor (P13945 whole entry): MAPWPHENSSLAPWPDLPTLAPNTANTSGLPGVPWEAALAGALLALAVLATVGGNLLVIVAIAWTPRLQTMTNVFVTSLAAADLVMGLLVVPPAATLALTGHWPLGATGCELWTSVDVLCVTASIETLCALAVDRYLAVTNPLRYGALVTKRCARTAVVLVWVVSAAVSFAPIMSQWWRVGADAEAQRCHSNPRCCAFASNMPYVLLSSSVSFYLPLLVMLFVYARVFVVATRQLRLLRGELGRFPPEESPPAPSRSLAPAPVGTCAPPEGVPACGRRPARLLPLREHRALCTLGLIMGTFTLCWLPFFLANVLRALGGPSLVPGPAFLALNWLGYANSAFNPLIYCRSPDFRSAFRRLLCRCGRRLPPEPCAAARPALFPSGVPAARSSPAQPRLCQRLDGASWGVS
# Sequence of Platelet-activating factor receptor (P25105 whole entry): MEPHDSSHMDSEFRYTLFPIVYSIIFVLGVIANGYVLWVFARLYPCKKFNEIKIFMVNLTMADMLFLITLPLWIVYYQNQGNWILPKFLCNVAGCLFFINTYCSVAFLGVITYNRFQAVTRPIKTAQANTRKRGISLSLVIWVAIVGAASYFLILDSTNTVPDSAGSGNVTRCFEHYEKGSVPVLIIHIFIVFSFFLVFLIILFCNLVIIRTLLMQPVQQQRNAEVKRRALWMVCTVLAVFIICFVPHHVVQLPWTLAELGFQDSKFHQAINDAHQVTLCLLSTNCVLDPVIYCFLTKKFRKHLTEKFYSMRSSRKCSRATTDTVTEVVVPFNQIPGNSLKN
# Sequence of Tyrosine-protein kinase Lck (P06239 whole entry): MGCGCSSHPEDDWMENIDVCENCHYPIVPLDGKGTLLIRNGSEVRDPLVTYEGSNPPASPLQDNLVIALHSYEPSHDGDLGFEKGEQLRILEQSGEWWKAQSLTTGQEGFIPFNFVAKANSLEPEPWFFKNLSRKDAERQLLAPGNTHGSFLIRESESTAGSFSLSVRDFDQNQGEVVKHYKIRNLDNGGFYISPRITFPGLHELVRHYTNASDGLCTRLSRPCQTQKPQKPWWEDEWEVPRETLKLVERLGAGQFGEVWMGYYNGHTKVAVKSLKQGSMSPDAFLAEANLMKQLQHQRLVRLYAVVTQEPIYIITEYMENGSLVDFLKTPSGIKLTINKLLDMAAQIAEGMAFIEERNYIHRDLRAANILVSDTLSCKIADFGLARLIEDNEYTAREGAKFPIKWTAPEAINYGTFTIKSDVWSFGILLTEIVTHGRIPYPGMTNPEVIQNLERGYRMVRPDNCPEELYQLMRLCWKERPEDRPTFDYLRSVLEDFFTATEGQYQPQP
# Sequence of Kappa-type opioid receptor (P41145 whole entry): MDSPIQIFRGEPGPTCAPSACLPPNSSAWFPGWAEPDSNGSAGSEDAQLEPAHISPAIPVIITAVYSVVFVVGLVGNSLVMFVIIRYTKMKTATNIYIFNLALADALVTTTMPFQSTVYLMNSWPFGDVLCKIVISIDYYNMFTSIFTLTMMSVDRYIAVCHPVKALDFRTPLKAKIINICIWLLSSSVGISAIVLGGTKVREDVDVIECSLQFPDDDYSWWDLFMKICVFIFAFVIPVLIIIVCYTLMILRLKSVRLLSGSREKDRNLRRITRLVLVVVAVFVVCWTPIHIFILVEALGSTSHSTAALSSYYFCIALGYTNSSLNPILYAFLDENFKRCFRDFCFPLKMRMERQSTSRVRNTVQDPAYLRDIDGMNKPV
# Sequence of C-C chemokine receptor type 2 (P41597 whole entry): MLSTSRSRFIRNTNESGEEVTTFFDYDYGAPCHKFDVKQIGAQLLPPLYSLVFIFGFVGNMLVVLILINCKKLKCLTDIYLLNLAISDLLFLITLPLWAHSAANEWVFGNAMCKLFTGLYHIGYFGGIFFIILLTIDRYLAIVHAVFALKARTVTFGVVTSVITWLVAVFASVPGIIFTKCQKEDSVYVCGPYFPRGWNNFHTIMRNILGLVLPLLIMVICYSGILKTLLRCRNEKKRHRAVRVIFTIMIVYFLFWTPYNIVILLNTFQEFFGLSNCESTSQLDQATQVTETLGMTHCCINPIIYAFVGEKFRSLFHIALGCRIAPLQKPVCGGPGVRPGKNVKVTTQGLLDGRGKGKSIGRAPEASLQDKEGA
# Sequence of Beta-2 adrenergic receptor (P07550 whole entry): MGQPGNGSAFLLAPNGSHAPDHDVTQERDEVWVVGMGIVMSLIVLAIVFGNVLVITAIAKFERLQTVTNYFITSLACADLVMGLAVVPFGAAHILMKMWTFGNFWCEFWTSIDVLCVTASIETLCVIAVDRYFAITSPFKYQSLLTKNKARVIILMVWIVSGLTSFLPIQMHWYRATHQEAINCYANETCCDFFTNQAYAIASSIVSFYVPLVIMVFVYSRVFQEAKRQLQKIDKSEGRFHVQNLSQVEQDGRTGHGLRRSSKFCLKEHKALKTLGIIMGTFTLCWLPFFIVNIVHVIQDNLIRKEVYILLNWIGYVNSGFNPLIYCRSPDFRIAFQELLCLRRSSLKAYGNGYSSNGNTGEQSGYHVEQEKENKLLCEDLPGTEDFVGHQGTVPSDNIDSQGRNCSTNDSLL
smiles,measurement,setting,value
CO[C@@H]1[C@@H](O[C@@H]2O[C@H](C)[C@@H](O[C@H]3C[C@@](C)(O)[C@@H](OC(=O)CC(C)C)[C@H](C)O3)[C@H](N(C)C)[C@H]2O)[C@@H](CC=O)C[C@@H](C)[C@@H](O)/C=C/C=C/C[C@@H](C)OC(=O)C[C@H]1O [KITASAMYCIN],IC50,[1],Not Active
same,Ki,[1],Not Active
same,IC50,Glycine receptor,Not Active
same,IC50,[2]; hek293,Not Active
same,IC50,[3],Not Active
same,IC50,Thromboxane-A synthase; platelet,Not Active
same,IC50,[4],Not Active
same,IC50,[5]; platelet,Not Active
same,IC50,[6],Not Active
same,IC50,[7],Not Active
same,IC50,Carbonic anhydrase 2; erythrocyte,Not Active
same,IC50,[8]; hek293,Not Active
same,IC50,[9]; cho-k1,Not Active
CC(C)(C)NCC(O)c1cc(O)cc(O)c1 (centres undefined) [TERBUTALINE],IC50,[1],Not Active
same,Ki,[1],Not Active
same,IC50,Glycine receptor,Not Active
same,IC50,[2]; hek293,Not Active
same,IC50,[3],Not Active
same,IC50,Thromboxane-A synthase; platelet,Not Active
same,IC50,[4],Not Active
same,IC50,[5]; platelet,Not Active
same,IC50,[7],Not Active
same,IC50,Carbonic anhydrase 2; erythrocyte,Not Active
same,IC50,[8]; hek293,Not Active
same,IC50,[9]; cho-k1,Not Active
Nc1ccc(S(N)(=O)=O)cc1 [SULFANILAMIDE],IC50,[1],Not Active
same,Ki,[1],Not Active
same,IC50,Glycine receptor,Not Active
same,IC50,[2]; hek293,Not Active
same,IC50,[3],Not Active
same,IC50,Thromboxane-A synthase; platelet,Not Active
same,IC50,[4],Not Active
same,IC50,[5]; platelet,Not Active
same,IC50,[6],Not Active
same,IC50,[7],Not Active
same,IC50,[8]; hek293,Not Active
same,IC50,[9]; cho-k1,Not Active
CN1CCN2c3ccccc3Cc3ccccc3C2C1 (centres undefined) [MIANSERIN],IC50,Glycine receptor,Not Active
same,IC50,[2]; hek293,Not Active
same,IC50,[3],Not Active
same,IC50,Thromboxane-A synthase; platelet,Not Active
same,IC50,[4],Not Active
same,IC50,[5]; platelet,Not Active
same,IC50,[6],Not Active
same,IC50,[7],Not Active
same,IC50,Carbonic anhydrase 2; erythrocyte,Not Active
same,IC50,[8]; hek293,Not Active
same,IC50,[9]; cho-k1,Not Active
Clc1ccccc1C(c1ccccc1)(c1ccccc1)n1ccnc1 [CLOTRIMAZOLE],IC50,Glycine receptor,Not Active
same,IC50,[2]; read-out: IC50,7.21 µM
same,Ki,[2],5.41 µM
same,IC50,[3],Not Active
same,IC50,Thromboxane-A synthase; read-out: IC50,0.014 µM
same,IC50,[4],Not Active
same,IC50,[5]; read-out: IC50,35 µM
same,Ki,[5]; read-out: Ki,22.6 µM
same,IC50,[7],Not Active
same,IC50,Carbonic anhydrase 2; read-out: IC50,30.1 µM
same,Ki,[8],2.52 µM
same,IC50,[8]; read-out: IC50,6.3 µM
same,IC50,[9]; read-out: IC50,33.2 µM
same,Ki,[9]; read-out: Ki,16.6 µM
CC(C)(C)NCC(O)c1ccc(O)c(CO)c1 (centres undefined) [ALBUTEROL],IC50,[1],Not Active
same,Ki,[1],Not Active
same,IC50,Glycine receptor,Not Active
same,IC50,[2]; hek293,Not Active
same,IC50,[3],Not Active
same,IC50,Thromboxane-A synthase; platelet,Not Active
same,IC50,[4],Not Active
same,IC50,[5]; platelet,Not Active
same,IC50,[7],Not Active
same,IC50,Carbonic anhydrase 2; erythrocyte,Not Active
same,IC50,[8]; hek293,Not Active
same,IC50,[9]; cho-k1,Not Active
CC(C)(O)c1ccccc1CC[C@@H](SCC1(CC(=O)O)CC1)c1cccc(/C=C/c2ccc3ccc(Cl)cc3n2)c1 [MONTELUKAST],IC50,Glycine receptor,Not Active
same,IC50,[2]; read-out: IC50,4.3 µM
same,Ki,[2],3.2 µM
same,IC50,[3],Not Active
same,IC50,Thromboxane-A synthase; read-out: IC50,1.53 µM
same,IC50,[4],Not Active
same,IC50,[5]; platelet,Not Active
same,IC50,[7],Not Active
same,IC50,Carbonic anhydrase 2; erythrocyte,Not Active
same,IC50,[8]; hek293,Not Active
